From PubChem BioAssay AID248 (DTP/NCI, 2004)
Several values for one entry are separate records, joined by “and”; a condition that tells them apart may be missing. Equal entries are not always repeated. Toxic doses and inconclusive results are not listed. No stated cut-off is given here; in the data, active means T/C of 150% or more; inactive means T/C below 125%.

System: L1210 leukemia ip in BDF1 mice, survival T/C
Test: NCI In Vivo Anticancer Drug Screen. Data for tumor model L1210 Leukemia (intraperitoneal) in B6D2F1 (BDF1) mice
Conditions: endpoint: mean survival time, higher = longer survival
Summary of the method: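 Tumor was transplanted into mice, which were then dosed with test compound or vehicle alone. Survival was recorded for each group, and the treated figure was expressed relative to the control figure.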

[1] = dose: 100.0 mg/kg/injection, schedule: Q01DX009 (ip), vehicle: Klucel (hydroxypropylcellulose) (HPC)
[2] = dose: 200.0 mg/kg/injection, schedule: Q01DX009 (ip), vehicle: Klucel (hydroxypropylcellulose) (HPC)
[3] = dose: 400.0 mg/kg/injection, schedule: Q01DX009 (ip), vehicle: Klucel (hydroxypropylcellulose) (HPC)
[4] = dose: 100.0 mg/kg/injection, schedule: Q01DX009 (ip), vehicle: saline
[5] = dose: 100.0 mg/kg/injection, schedule: Q04DX003 (ip), vehicle: saline
[6] = dose: 200.0 mg/kg/injection, schedule: Q04DX003 (ip), vehicle: saline
[7] = dose: 400.0 mg/kg/injection, schedule: Q04DX003 (ip), vehicle: saline
[8] = dose: 12.5 mg/kg/injection, schedule: Q01DX009 (ip), vehicle: water
[9] = dose: 25.0 mg/kg/injection, schedule: Q01DX009 (ip), vehicle: water
[10] = dose: 50.0 mg/kg/injection, schedule: Q01DX009 (ip), vehicle: water
[11] = dose: 100.0 mg/kg/injection, schedule: Q01DX001 (ip), vehicle: other
[12] = dose: 200.0 mg/kg/injection, schedule: Q01DX001 (ip), vehicle: other
[13] = dose: 400.0 mg/kg/injection, schedule: Q01DX001 (ip), vehicle: other
[14] = dose: 100.0 mg/kg/injection, schedule: Q04DX003 (ip), vehicle: Klucel (hydroxypropylcellulose) (HPC)
[15] = dose: 200.0 mg/kg/injection, schedule: Q04DX003 (ip), vehicle: Klucel (hydroxypropylcellulose) (HPC)
[16] = dose: 12.5 mg/kg/injection, schedule: Q04DX003 (ip), vehicle: saline
[17] = dose: 25.0 mg/kg/injection, schedule: Q04DX003 (ip), vehicle: saline
[18] = dose: 100.0 mg/kg/injection, schedule: Q04DX003 (ip), vehicle: saline with Tween-80

Measured: T/C

CCCCCCCCCCCCCCCCCC(=O)N/N=C/c1cc(OC)ccc1OC
inactive: [1] 89 % of control | [2] 86 % of control | [3] 96 % of control

CCC(=O)c1ccc(OC(C)=O)cc1
inactive: dose: 222.0 mg/kg/injection, schedule: Q01DX Z (ip), vehicle: carboxymethylcellulose (CMC) 100 % of control | dose: 333.0 mg/kg/injection, schedule: Q01DX Z (ip), vehicle: carboxymethylcellulose (CMC) 118 % of control | dose: 500.0 mg/kg/injection, schedule: Q01DX Z (ip), vehicle: carboxymethylcellulose (CMC) 108 % of control

COc1cc(NS(C)(=O)=O)ccc1N
inactive: [4] 103 % of control | [5] 107 % of control | dose: 200.0 mg/kg/injection, schedule: Q01DX009 (ip), vehicle: saline 98 % of control | [6] 103 % of control | [7] 102 % of control

CC(=O)C(C)[P+](c1ccccc1)(c1ccccc1)c1ccccc1 (stereo not drawn)
inactive: dose: 6.25 mg/kg/injection, schedule: Q01DX009 (ip), vehicle: water 104 % of control | [8] 95 % of control | dose: 12.5 mg/kg/injection, schedule: Q04DX003 (ip), vehicle: water 102 % of control | [9] 102 % of control | dose: 25.0 mg/kg/injection, schedule: Q04DX003 (ip), vehicle: water 100 % of control | [10] 96 % of control

CC(=O)Oc1c2ccsc2cc2ccsc12
inactive: dose: 100.0 mg/kg/injection, schedule: Q01DX001 (ip), vehicle: saline with Tween-80 100 % of control | dose: 200.0 mg/kg/injection, schedule: Q01DX001 (ip), vehicle: saline with Tween-80 96 % of control | dose: 400.0 mg/kg/injection, schedule: Q01DX001 (ip), vehicle: saline with Tween-80 96 % of control

C=CC[N+](CC=C)(CC=C)CCC[N+](CC=C)(CC=C)CC=C
inactive: [8] 98 % of control | [9] 98 % of control and 101 % of control | [10] 102 % of control and 108 % of control

Cc1c(C2=CC(=O)c3ccccc3C2=O)[nH]c2ccccc12
inactive: dose: 50.0 mg/kg/injection, schedule: Q01DX001 (ip), vehicle: other 93 % of control | [11] 91 % of control | [12] 102 % of control | [13] 106 % of control

CC(C)(C)CN
inactive: dose: 50.0 mg/kg/injection, schedule: Q01DX009 (ip), vehicle: saline 98 % of control | [4] 93 % of control | [5] 102 % of control | [6] 98 % of control

CC(=O)OC1CCC(NC(=O)NCCCl)CC1 (stereo not drawn)
inactive: [11] 96 % of control | [12] 98 % of control | [13] 88 % of control

NC(=O)N/N=C1\CC2CCC1C2Cl (stereo not drawn)
inactive: dose: 75.0 mg/kg/injection, schedule: Q01DX001 (ip), vehicle: saline 100 % of control and 107 % of control | dose: 150.0 mg/kg/injection, schedule: Q01DX001 (ip), vehicle: saline 96 % of control | dose: 300.0 mg/kg/injection, schedule: Q01DX001 (ip), vehicle: saline 98 % of control and 88 % of control

CC(=O)Nc1c(Br)cc2c(c1Br)Cc1cc(N=Cc3ccc4c(c3)OCO4)ccc1-2
inactive: [11] 100 % of control | [12] 94 % of control | [13] 103 % of control

O=C(Nc1ccc(F)c(Cl)c1)OCC1CCCO1 (stereo not drawn)
inactive: dose: 6.25 mg/kg/injection, schedule: Q01DX009 (ip), vehicle: Klucel (hydroxypropylcellulose) (HPC) 92 % of control | dose: 12.5 mg/kg/injection, schedule: Q01DX009 (ip), vehicle: Klucel (hydroxypropylcellulose) (HPC) 89 % of control | [14] 94 % of control | [15] 89 % of control

CN(C)C(=O)NCc1ccco1
inactive: [16] 97 % of control | [17] 95 % of control | dose: 50.0 mg/kg/injection, schedule: Q04DX003 (ip), vehicle: saline 101 % of control

CN1C(=O)NC(C)(c2cccs2)C1=O (stereo not drawn)
inactive: dose: 100.0 mg/kg/injection, schedule: Q01DX009 (ip), vehicle: saline with Tween-80 112 % of control | [18] 99 % of control | dose: 200.0 mg/kg/injection, schedule: Q01DX009 (ip), vehicle: saline with Tween-80 113 % of control | dose: 200.0 mg/kg/injection, schedule: Q04DX003 (ip), vehicle: saline with Tween-80 106 % of control | dose: 400.0 mg/kg/injection, schedule: Q04DX003 (ip), vehicle: saline with Tween-80 97 % of control

Cc1ccc(N2CCNCC2)cc1
inactive: dose: 6.25 mg/kg/injection, schedule: Q04DX003 (ip), vehicle: saline 91 % of control | [16] 93 % of control | [17] 103 % of control

O=C(N=C1C=CC(=NC(=O)OCc2ccccc2)C=C1)OCc1ccccc1
inactive: [1] 98 % of control | [14] 92 % of control | [2] 100 % of control | [15] 88 % of control | [3] 100 % of control | dose: 400.0 mg/kg/injection, schedule: Q04DX003 (ip), vehicle: Klucel (hydroxypropylcellulose) (HPC) 90 % of control

CCC1c2ccc3cc(OC)ccc3c2CC1CC(=O)O (stereo not drawn)
inactive: [5] 92 % of control | [6] 92 % of control | [7] 86 % of control

COc1cccc(/C(C)=N\NC(=O)c2ccccc2)c1
inactive: dose: 25.0 mg/kg/injection, schedule: Q04DX003 (ip), vehicle: saline with Tween-80 88 % of control | dose: 50.0 mg/kg/injection, schedule: Q04DX003 (ip), vehicle: saline with Tween-80 90 % of control | [18] 92 % of control

COc1ccc(C(C)C(C)=O)cc1 (stereo not drawn)
inactive: dose: 50.0 mg/kg/injection, schedule: Q01DX009 (ip), vehicle: saline with Tween-80 95 % of control
